Source: ChEMBL document CHEMBL1156251, “Structure--activity relationships of polymyxin antibiotics” (J Med Chem, 2010)
Values after ≈ are worked out from the molar mass of the structure shown. Values joined by “and” are separate entries in the source; they are usually repeats but may differ in a detail not shown here. Equal values may be shown once. Where a SMILES comes first, the peptide text is derived from it. Bridges are numbered along the chain shown (N, C = ends). [ ]: non-standard residue; d: D form. The star is where a group is joined. Octanoyl = CCCCCCCC(=O)*; Dab = NCC[C@H](N)C(=O)O

Columns and labels:
[1] = system: Escherichia coli; assay: Antimicrobial activity against Escherichia coli; type: functional
[2] = system: Pseudomonas aeruginosa; assay: Antimicrobial activity against Pseudomonas aeruginosa; type: functional, organism-based
[3] = system: Salmonella enterica; assay: Antimicrobial activity against Salmonella enterica; type: functional
[4] = target: Lipopolysaccharide (LPS); assay: Displacement of dansyl-PMB from LPS by isothermal titration calorimetry
[5] = system: Klebsiella pneumoniae; assay: Antimicrobial activity against Klebsiella pneumoniae; type: functional

Row | SMILES | MIC [1] | MIC [2] | MIC [3] | IC50 [4] | MIC [5]
1 | CC(C)C[C@@H]1NC(=O)[C@@H](Cc2ccccc2)NC(=O)[C@H](CCN)NC(=O)[C@@H](NC(=O)[C@H](CCN)NC(=O)[C@@H](NC(=O)[C@H](C)NC(=O)O)[C@@H](C)O)CCNC(=O)[C@H]([C@@H](C)O)NC(=O)[C@H](CCN)NC(=O)[C@H](CCN)NC1=O [DESFA-[ALA1]POLYMYXIN B] | 32 µM (≈ 34.5 µg/mL) | 32 µM (≈ 34.5 µg/mL) | 64 µM (≈ 69 µg/mL) | >= 32 nmol/ml | –
2 | CC(=O)N[C@@H](CCN)C(=O)N[C@H](C(=O)N[C@@H](CCN)C(=O)N[C@H]1CCNC(=O)[C@H]([C@@H](C)O)NC(=O)[C@H](CCN)NC(=O)[C@H](CCN)NC(=O)[C@H](CC(C)C)NC(=O)[C@@H](Cc2ccccc2)NC(=O)[C@H](CCN)NC1=O)[C@@H](C)O [DEACYL POLYMYXIN B] (Ac-[Dab]T[Dab][Dab][Dab][dF]L[Dab][Dab]T; lactam 4-C) | 8 µM and 30 µg/mL | 4 µM (≈ 4.42 µg/mL) | 16 µM (≈ 17.7 µg/mL) | 13 µM | –
3 | CC(C)C[C@@H]1NC(=O)[C@@H](Cc2ccccc2)NC(=O)[C@H](CCN)NC(=O)[C@@H](NC(=O)[C@H](CCN)NC(=O)[C@@H](NC(=O)[C@H](CCCNC(=N)N)NC(=O)[C@@H](CCCNC(=N)N)NC(=O)[C@@H](N)CCCNC(=N)N)[C@@H](C)O)CCNC(=O)[C@H]([C@@H](C)O)NC(=O)[C@H](CCN)NC(=O)[C@H](CCN)NC1=O [DESFA-[ARG-ARG-ARG1]POLYMYXIN B] | 16 µM (≈ 22.9 µg/mL) | 1 µM (≈ 1.43 µg/mL) | 64 µM (≈ 91.6 µg/mL) | 3 µM | –
4 | CCCCCCCC(=O)N[C@@H](CCN)C(=O)N[C@H](C(=O)N[C@@H](CCN)C(=O)N[C@H]1CCNC(=O)[C@H]([C@@H](C)O)NC(=O)[C@H](CCN)NC(=O)[C@H](CCN)NC(=O)[C@H](CC(C)C)NC(=O)[C@@H](C)NC(=O)[C@H](CCN)NC1=O)[C@@H](C)O | 1 µM (≈ 1.11 µg/mL) | 1 µM (≈ 1.11 µg/mL) | 1 µM (≈ 1.11 µg/mL) | 6 µM | –
5 | CC(C)C[C@@H]1NC(=O)[C@@H](Cc2ccccc2)NC(=O)[C@H](CCN)NC(=O)[C@@H](NC(=O)[C@H](CCN)NC(=O)[C@@H](NC(=O)[C@H](C)NC(=O)[C@@H](C)NC(=O)[C@H](C)N)[C@@H](C)O)CCNC(=O)[C@H]([C@@H](C)O)NC(=O)[C@H](CCN)NC(=O)[C@H](CCN)NC1=O [DESFA-[ALA-ALA-ALA1]POLYMYXIN B] | 64 µM (≈ 75.3 µg/mL) | 128 µM (≈ 151 µg/mL) | 128 µM (≈ 151 µg/mL) | >= 32 nmol/ml | –
6 | CC(C)C[C@H](NC(=O)O)C(=O)N[C@H](C(=O)N[C@@H](CCN)C(=O)N[C@H]1CCNC(=O)[C@H]([C@@H](C)O)NC(=O)[C@H](CCN)NC(=O)[C@H](CCN)NC(=O)[C@H](CC(C)C)NC(=O)[C@@H](Cc2ccccc2)NC(=O)[C@H](CCN)NC1=O)[C@@H](C)O [DESFA-[LEU1]POLYMYXIN B] | 16 µM (≈ 17.9 µg/mL) | 64 µM (≈ 71.7 µg/mL) | 32 µM (≈ 35.9 µg/mL) | >= 32 nmol/ml | –
7 | CCCCCCCC(=O)N[C@@H](CCN)C(=O)N[C@H](C(=O)N[C@@H](CCN)C(=O)N[C@H]1CCNC(=O)[C@H]([C@@H](C)O)NC(=O)[C@H](CCN)NC(=O)[C@H](CCN)NC(=O)[C@H](CC(C)C)NC(=O)CNC(=O)[C@H](CCN)NC1=O)[C@@H](C)O (Octanoyl-[Dab]T[Dab][Dab][Dab]GL[Dab][Dab]T; lactam 4-C) | 2 µM (≈ 2.2 µg/mL) | 1 µM (≈ 1.1 µg/mL) | 16 µM (≈ 17.6 µg/mL) | 11 µM | –
8 | CC(C)C[C@@H]1NC(=O)[C@@H](Cc2ccccc2)NC(=O)[C@H](CCN)NC(=O)[C@@H](NC(=O)[C@H](CCN)NC(=O)[C@@H](NC(=O)[C@H](CO)NC(=O)O)[C@@H](C)O)CCNC(=O)[C@H]([C@@H](C)O)NC(=O)[C@H](CCN)NC(=O)[C@H](CCN)NC1=O [DESFA-[SER1]POLYMYXIN B] | 64 µM (≈ 70 µg/mL) | 1 µM (≈ 1.09 µg/mL) | 64 µM (≈ 70 µg/mL) | >= 32 nmol/ml | –
9 | CC(C)C[C@@H]1NC(=O)[C@@H](Cc2ccccc2)NC(=O)[C@H](CCN)NC(=O)[C@@H](NC(=O)[C@H](CCN)NC(=O)[C@@H](NC(=O)[C@H](CCN)NC(=O)O)[C@@H](C)O)CCNC(=O)[C@H]([C@@H](C)O)NC(=O)[C@H](CCN)NC(=O)[C@H](CCN)NC1=O [DESFA-[DAB1]POLYMYXIN B] | 8 µM (≈ 8.86 µg/mL) | 4 µM (≈ 4.43 µg/mL) | 16 µM (≈ 17.7 µg/mL) | 19 µM | –
10 | CCC(C)CCCCC(=O)N[C@@H](CC/N=C/c1ccc(O)c(OC)c1)C(=O)N[C@@H](C(=O)N[C@@H](CCN)C(=O)N[C@H]1CCNC(=O)[C@@H]([C@@H](C)O)NC(=O)[C@H](CC/N=C/c2ccc(O)c(OC)c2)NC(=O)[C@H](CC/N=C/c2ccc(O)c(OC)c2)NC(=O)[C@H](CC(C)C)NC(=O)[C@@H](Cc2ccccc2)NC(=O)[C@H](CC/N=C/c2ccc(O)c(OC)c2)NC1=O)[C@@H](C)O (stereo partly specified) | – | – | – | – | 26 µg/mL (≈ 14.9 µM)
11 | CCCCCCCC(=O)N[C@H](C(=O)N[C@@H](CCN)C(=O)N[C@H]1CCNC(=O)[C@H]([C@@H](C)O)NC(=O)[C@H](CCN)NC(=O)[C@H](CCN)NC(=O)[C@H](CC(C)C)NC(=O)[C@@H](Cc2ccccc2)NC(=O)[C@H](CCN)NC1=O)[C@@H](C)O (stereo in doubt; 231) [Octanoyl Polymixin B nonapeptide] | 2 µM (≈ 2.18 µg/mL) | 2 µM (≈ 2.18 µg/mL) | 2 µM (≈ 2.18 µg/mL) | 12 µM | –
